Data: PubChem BioAssay AID288 (DTP/NCI, 2004)
Values joined by “and” are separate entries in the source; they are usually repeats but may differ in a detail not shown here. Equal entries are not always repeated. Results filed as inconclusive are left out.

System: BDF1 mice, M5076 sarcoma s.c., survival/tumor T/C
Assay: NCI In Vivo Anticancer Drug Screen. Data for tumor model Sarcoma M5076 (subcutaneous) in B6D2F1 (BDF1) mice
Protocol: The antitumor activity of compounds was measured in mice bearing transplantable tumors. Survival or tumor size were measured and the results are expressed as the measurement made in the treated group (T) divided by the measurement made in the vehicle treated control group (C). The tumor model used in this assay is Sarcoma M5076 (subcutaneous) in B6D2F1 (BDF1) mice

[1] = endpoint: median survival time, dose: 50.0 mg/kg/injection, schedule: Q01DX009 (ip), vehicle: saline with Tween-80, higher = longer survival
[2] = endpoint: median survival time, dose: 100.0 mg/kg/injection, schedule: Q01DX009 (ip), vehicle: saline with Tween-80, higher = longer survival
[3] = endpoint: median tumor weight (est.), dose: 50.0 mg/kg/injection, schedule: Q01DX009 (ip), vehicle: saline with Tween-80, higher = larger tumour
[4] = endpoint: median tumor weight (est.), dose: 100.0 mg/kg/injection, schedule: Q01DX009 (ip), vehicle: saline with Tween-80, higher = larger tumour
[5] = endpoint: median survival time, dose: 12.5 mg/kg/injection, schedule: Q01DX009 (ip), vehicle: saline with Tween-80, higher = longer survival
[6] = endpoint: median survival time, dose: 25.0 mg/kg/injection, schedule: Q01DX009 (ip), vehicle: saline with Tween-80, higher = longer survival
[7] = endpoint: median tumor weight (est.), dose: 12.5 mg/kg/injection, schedule: Q01DX009 (ip), vehicle: saline with Tween-80, higher = larger tumour
[8] = endpoint: median tumor weight (est.), dose: 25.0 mg/kg/injection, schedule: Q01DX009 (ip), vehicle: saline with Tween-80, higher = larger tumour
[9] = endpoint: median survival time, dose: 200.0 mg/kg/injection, schedule: Q01DX009 (ip), vehicle: saline with Tween-80, higher = longer survival
[10] = endpoint: median tumor weight (est.), dose: 200.0 mg/kg/injection, schedule: Q01DX009 (ip), vehicle: saline with Tween-80, higher = larger tumour
[11] = endpoint: median tumor weight (est.), dose: 1.5 mg/kg/injection, schedule: Q01DX009 (ip), vehicle: saline + alcohol, higher = larger tumour

## CC/C(=C(/CC)c1ccc(O)cc1)c1ccc(O)cc1
endpoint: mean tumor weight, dose: 7.5 mg/kg/injection, schedule: Q02DX011 (ip), vehicle: Klucel (hydroxypropylcellulose) (HPC), higher = larger tumour
  T/C: 114 % of control
endpoint: mean tumor weight, dose: 15.0 mg/kg/injection, schedule: Q02DX011 (ip), vehicle: Klucel (hydroxypropylcellulose) (HPC), higher = larger tumour
  T/C: 62 % of control and 87 % of control
endpoint: mean tumor weight, dose: 60.0 mg/kg/injection, schedule: Q02DX011 (ip), vehicle: Klucel (hydroxypropylcellulose) (HPC), higher = larger tumour
  T/C: 55 % of control
endpoint: median tumor weight (est.), dose: 15.0 mg/kg/injection, schedule: Q02DX011 (ip), vehicle: Klucel (hydroxypropylcellulose) (HPC), higher = larger tumour
  T/C: 88 % of control
endpoint: median tumor weight (est.), dose: 30.0 mg/kg/injection, schedule: Q02DX011 (ip), vehicle: Klucel (hydroxypropylcellulose) (HPC), higher = larger tumour
  T/C: 66 % of control
endpoint: median tumor weight (est.), dose: 60.0 mg/kg/injection, schedule: Q02DX011 (ip), vehicle: Klucel (hydroxypropylcellulose) (HPC), higher = larger tumour
  T/C: 28 % of control

## CC(=O)Nc1ccc(OC(=O)Nc2ccc(C)c(NC(=O)Oc3ccc(NC(C)=O)cc3)c2)cc1
[1]
  T/C: 113 % of control
[2]
  T/C: 95 % of control
[3]
  T/C: 47 % of control
[4]
  T/C: 187 % of control

## Cc1ccc(C(=O)N=Nc2c(Cl)c(O)c3ccccc3c2O)cc1
[5]
  T/C: 113 % of control
[6]
  T/C: 110 % of control
[1]
  T/C: 89 % of control
[7]
  T/C: 62 % of control
[8]
  T/C: 120 % of control
[3]
  T/C: 80 % of control
[4]
  T/C: 88 % of control

## O=C(O)c1c(CS(F)(F)(F)(F)F)cc(=O)oc1CS(F)(F)(F)(F)F
[1]
  T/C: 98 % of control

## CN(Cc1cnc2nc(N)nc(N)c2n1)c1ccc(C(=O)N[C@@H](CCC(=O)O)C(=O)O)cc1
endpoint: median survival time, dose: 0.5 mg/kg/injection, schedule: Q04DX006 (ip), vehicle: saline, higher = longer survival
  T/C: 97 % of control
endpoint: median survival time, dose: 1.0 mg/kg/injection, schedule: Q04DX006 (ip), vehicle: saline, higher = longer survival
  T/C: 106 % of control
endpoint: median survival time, dose: 2.0 mg/kg/injection, schedule: Q04DX006 (ip), vehicle: saline, higher = longer survival
  T/C: 97 % of control
endpoint: median survival time, dose: 4.0 mg/kg/injection, schedule: Q04DX006 (ip), vehicle: saline, higher = longer survival
  T/C: 108 % of control

## COc1cc(NS(C)(=O)=O)ccc1Nc1c2ccccc2nc2ccccc12
endpoint: mean tumor weight, dose: 1.88 mg/kg/injection, schedule: Q02DX011 (ip), vehicle: clinical formulation, higher = larger tumour
  T/C: 68 % of control
endpoint: mean tumor weight, dose: 3.75 mg/kg/injection, schedule: Q02DX011 (ip), vehicle: clinical formulation, higher = larger tumour
  T/C: 31 % of control
endpoint: median tumor weight (est.), dose: 1.88 mg/kg/injection, schedule: Q02DX011 (ip), vehicle: clinical formulation, higher = larger tumour
  T/C: 79 % of control
endpoint: median tumor weight (est.), dose: 3.75 mg/kg/injection, schedule: Q02DX011 (ip), vehicle: clinical formulation, higher = larger tumour
  T/C: 42 % of control

## CCN1Cc2c(/C=C/c3ccccc3)nc3ccc(OC)cc3c2N(c2cccc(Cl)c2)C1
[1]
  T/C: 99 % of control
[2]
  T/C: 99 % of control
[9]
  T/C: 105 % of control
[3]
  T/C: 60 % of control
[4]
  T/C: 105 % of control
[10]
  T/C: 73 % of control

## COc1cccc(/C=N/NP(=S)(Oc2ccc(C(C)(C)C)cc2)Oc2ccc(C(C)(C)C)cc2)c1OC
[1]
  T/C: 94 % of control
[2]
  T/C: 94 % of control
[9]
  T/C: 100 % of control
[3]
  T/C: 122 % of control
[4]
  T/C: 100 % of control
[10]
  T/C: 74 % of control

## O=C(N/N=C\c1cc(Br)cc(Br)c1O)N/N=C/c1cc(Br)cc(Br)c1O
endpoint: median survival time, dose: 200.0 mg/kg/injection, schedule: Q04DX003 (ip), vehicle: saline with Tween-80, higher = longer survival
  T/C: 111 % of control
endpoint: median survival time, dose: 400.0 mg/kg/injection, schedule: Q04DX003 (ip), vehicle: saline with Tween-80, higher = longer survival
  T/C: 112 % of control
endpoint: median survival time, dose: 800.0 mg/kg/injection, schedule: Q04DX003 (ip), vehicle: saline with Tween-80, higher = longer survival
  T/C: 97 % of control

## CC(=O)O[C@]1(C(C)=O)CC[C@H]2[C@@H]3C[C@H](C)C4=CC(=O)CC[C@]4(C)[C@H]3CC[C@@]21C
endpoint: mean tumor weight, dose: 100.0 mg/kg/injection, schedule: Q02DX011 (ip), vehicle: Klucel (hydroxypropylcellulose) (HPC), higher = larger tumour
  T/C: 44 % of control
endpoint: mean tumor weight, dose: 200.0 mg/kg/injection, schedule: Q02DX011 (ip), vehicle: Klucel (hydroxypropylcellulose) (HPC), higher = larger tumour
  T/C: 122 % of control
endpoint: mean tumor weight, dose: 400.0 mg/kg/injection, schedule: Q02DX011 (ip), vehicle: Klucel (hydroxypropylcellulose) (HPC), higher = larger tumour
  T/C: 74 % of control
endpoint: median tumor weight (est.), dose: 100.0 mg/kg/injection, schedule: Q02DX011 (ip), vehicle: Klucel (hydroxypropylcellulose) (HPC), higher = larger tumour
  T/C: 49 % of control
endpoint: median tumor weight (est.), dose: 200.0 mg/kg/injection, schedule: Q02DX011 (ip), vehicle: Klucel (hydroxypropylcellulose) (HPC), higher = larger tumour
  T/C: 86 % of control
endpoint: median tumor weight (est.), dose: 400.0 mg/kg/injection, schedule: Q02DX011 (ip), vehicle: Klucel (hydroxypropylcellulose) (HPC), higher = larger tumour
  T/C: 59 % of control

## O=C1N[C@H]2[C@H](O)[C@H](O)[C@@H](O)[C@H](O)[C@@H]2c2cc3c(c(O)c21)OCO3
endpoint: median survival time, dose: 0.38 mg/kg/injection, schedule: Q01DX009 (ip), vehicle: saline + alcohol, higher = longer survival
  T/C: 101 % of control
endpoint: median survival time, dose: 0.75 mg/kg/injection, schedule: Q01DX009 (ip), vehicle: saline + Tween-80 + alcohol, higher = longer survival
  T/C: 106 % of control
endpoint: median survival time, dose: 0.75 mg/kg/injection, schedule: Q01DX009 (ip), vehicle: saline + alcohol, higher = longer survival
  T/C: 89 % of control
endpoint: median survival time, dose: 1.5 mg/kg/injection, schedule: Q01DX009 (ip), vehicle: saline + Tween-80 + alcohol, higher = longer survival
  T/C: 111 % of control
endpoint: median survival time, dose: 1.5 mg/kg/injection, schedule: Q01DX009 (ip), vehicle: saline + alcohol, higher = longer survival
  T/C: 94 % of control
endpoint: median survival time, dose: 3.0 mg/kg/injection, schedule: Q01DX009 (ip), vehicle: saline + alcohol, higher = longer survival
  T/C: 120 % of control
endpoint: median tumor weight (est.), dose: 0.38 mg/kg/injection, schedule: Q01DX009 (ip), vehicle: saline + alcohol, higher = larger tumour
  T/C: 103 % of control
endpoint: median tumor weight (est.), dose: 0.75 mg/kg/injection, schedule: Q01DX009 (ip), vehicle: saline + Tween-80 + alcohol, higher = larger tumour
  T/C: 80 % of control
endpoint: median tumor weight (est.), dose: 0.75 mg/kg/injection, schedule: Q01DX009 (ip), vehicle: saline + alcohol, higher = larger tumour
  T/C: 96 % of control
endpoint: median tumor weight (est.), dose: 1.5 mg/kg/injection, schedule: Q01DX009 (ip), vehicle: saline + Tween-80 + alcohol, higher = larger tumour
  T/C: 49 % of control
[11]
  T/C: 64 % of control
endpoint: median tumor weight (est.), dose: 3.0 mg/kg/injection, schedule: Q01DX009 (ip), vehicle: saline + Tween-80 + alcohol, higher = larger tumour
  T/C: 2 % of control
endpoint: median tumor weight (est.), dose: 3.0 mg/kg/injection, schedule: Q01DX009 (ip), vehicle: saline + alcohol, higher = larger tumour
  T/C: 27 % of control
endpoint: median tumor weight (est.), dose: 6.0 mg/kg/injection, schedule: Q01DX009 (ip), vehicle: saline + alcohol, higher = larger tumour
  T/C: 3 % of control

## O=NN(CCCl)C(=O)NCCCl
endpoint: median survival time, dose: 1.35 mg/kg/injection, schedule: Q04DX009 (ip), vehicle: saline with Tween-80, higher = longer survival
  T/C: 108 % of control
endpoint: median survival time, dose: 2.7 mg/kg/injection, schedule: Q02DX033 (ip), vehicle: saline, higher = longer survival
  T/C: 233 % of control
endpoint: median survival time, dose: 2.7 mg/kg/injection, schedule: Q04DX009 (ip), vehicle: saline with Tween-80, higher = longer survival
  T/C: 121 % of control
endpoint: median survival time, dose: 5.4 mg/kg/injection, schedule: Q02DX033 (ip), vehicle: saline, higher = longer survival
  T/C: 171 % of control
endpoint: median survival time, dose: 5.4 mg/kg/injection, schedule: Q04DX009 (ip), vehicle: saline with Tween-80, higher = longer survival
  T/C: 254 % of control
endpoint: median survival time, dose: 6.0 mg/kg/injection, schedule: Q01DX009 (ip), vehicle: saline + alcohol, higher = longer survival
  T/C: 159 % of control
endpoint: median survival time, dose: 10.8 mg/kg/injection, schedule: Q04DX009 (ip), vehicle: saline with Tween-80, higher = longer survival
  T/C: 238 % of control
[11]
  T/C: 25 % of control

## COCC(O)Cn1ccnc1[N+](=O)[O-] (configuration not stated)
endpoint: median survival time, dose: 600.0 mg/kg/injection, schedule: Q04DX003 (ip), vehicle: saline, higher = longer survival
  T/C: 105 % of control and 106 % of control
endpoint: median survival time, dose: 668.0 mg/kg/injection, schedule: Q07DX002 (ip), vehicle: saline, higher = longer survival
  T/C: 97 % of control
endpoint: median survival time, dose: 1000.0 mg/kg/injection, schedule: Q04DX003 (ip), vehicle: saline, higher = longer survival
  T/C: 102 % of control
endpoint: median survival time, dose: 1000.0 mg/kg/injection, schedule: Q07DX002 (ip), vehicle: saline, higher = longer survival
  T/C: 119 % of control

## O=C1c2ccccc2C(=O)c2c(NCCNCCO)ccc(O)c21
endpoint: median survival time, dose: 12.5 mg/kg/injection, schedule: Q04DX003 (ip), vehicle: saline with Tween-80, higher = longer survival
  T/C: 90 % of control
endpoint: median survival time, dose: 25.0 mg/kg/injection, schedule: Q04DX003 (ip), vehicle: saline with Tween-80, higher = longer survival
  T/C: 116 % of control
endpoint: median survival time, dose: 50.0 mg/kg/injection, schedule: Q04DX003 (ip), vehicle: saline with Tween-80, higher = longer survival
  T/C: 103 % of control
endpoint: median survival time, dose: 100.0 mg/kg/injection, schedule: Q04DX003 (ip), vehicle: saline with Tween-80, higher = longer survival
  T/C: 104 % of control and 107 % of control
endpoint: median survival time, dose: 150.0 mg/kg/injection, schedule: Q04DX003 (ip), vehicle: saline with Tween-80, higher = longer survival
  T/C: 122 % of control

## Nc1nc(N)c2c(ccc3nccc32)[nH]1
[5]
  T/C: 86 % of control
[6]
  T/C: 92 % of control
[7]
  T/C: 80 % of control
[8]
  T/C: 62 % of control
